The values that follow are results of earlier work, collected in US20190008906A1, “COMPOSITIONS FOR MANAGEMENT OF WOUNDS, SKIN DISEASES, DEHYDRATION, CHRONIC DISEASES, AND RESPIRATORY DISEASES” (priority 2017, published 2019).

For this data set the following is noted: laboratory animals, mainly when given orally.

As for `CC1=CC(=O)C(C(C)C)=CC1=O` [thymoquinone], the “safety in toxicity studies” value was “quite safe”.
